Target: Mu-type opioid receptor (Cavia porcellus, UniProt P97266)
Assay: Inhibitory activity against opioid receptor mu of guinea pig brain using [3H]DAGO radioligand

Mu-type opioid receptor, sequence (P97266 whole entry): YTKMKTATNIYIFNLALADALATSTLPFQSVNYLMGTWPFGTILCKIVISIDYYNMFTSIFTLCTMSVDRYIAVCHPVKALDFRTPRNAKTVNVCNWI

## CN1CC[C@]23CCCC[C@H]2[C@H]1Cc1ccc(O)cc13 [LEVORPHANOL]
  IC50: 0.6 nM
